Measurements taken from the supplement of paper PMC11451515.

Tested on: NOMO1
Test: cell viability relative to DMSO control; higher = less cytotoxic
Details: 48 h
Summary of the method: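 Library compounds in DMSO were pin-dosed into 1536-well plates (5 μl) holding NOMO1 or SEM (500 cells/well) or P12-Ichikawa (1000 cells/well) leukemia cells, across an 11-point threefold series of 47 μM to 0.79 nM. Each cell line had been adapted for at least four passages in each medium. CellTiter-Glo One luminescence was read after 48 h at 37°C. Viability is the per-plate percentage relative to DMSO wells, with cell-free wells as background.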

[1] = HPLM + 10% dialyzed FBS, 0.000781 µM
[2] = HPLM + 10% dialyzed FBS, 0.00234 µM
[3] = HPLM + 10% dialyzed FBS, 0.00702 µM
[4] = HPLM + 10% dialyzed FBS, 0.0211 µM
[5] = HPLM + 10% dialyzed FBS, 0.0632 µM
[6] = HPLM + 10% dialyzed FBS, 0.19 µM
[7] = HPLM + 10% dialyzed FBS, 0.569 µM
[8] = HPLM + 10% dialyzed FBS, 1.71 µM
[9] = HPLM + 10% dialyzed FBS, 5.12 µM
[10] = HPLM + 10% dialyzed FBS, 15.4 µM
[11] = HPLM + 10% dialyzed FBS, 46.1 µM
[12] = RPMI 5 mM glucose + 10% FBS, 0.000781 µM
[13] = RPMI 5 mM glucose + 10% FBS, 0.00234 µM
[14] = RPMI 5 mM glucose + 10% FBS, 0.00702 µM
[15] = RPMI 5 mM glucose + 10% FBS, 0.0211 µM
[16] = RPMI 5 mM glucose + 10% FBS, 0.0632 µM
[17] = RPMI 5 mM glucose + 10% FBS, 0.19 µM
[18] = RPMI 5 mM glucose + 10% FBS, 0.569 µM
[19] = RPMI 5 mM glucose + 10% FBS, 1.71 µM
[20] = RPMI 5 mM glucose + 10% FBS, 5.12 µM
[21] = RPMI 5 mM glucose + 10% FBS, 15.4 µM
[22] = RPMI 5 mM glucose + 10% FBS, 46.1 µM
[23] = RPMI 5 mM glucose + 10% dialyzed FBS, 0.000781 µM
[24] = RPMI 5 mM glucose + 10% dialyzed FBS, 0.00234 µM
[25] = RPMI 5 mM glucose + 10% dialyzed FBS, 0.00702 µM
[26] = RPMI 5 mM glucose + 10% dialyzed FBS, 0.0211 µM
[27] = RPMI 5 mM glucose + 10% dialyzed FBS, 0.0632 µM
[28] = RPMI 5 mM glucose + 10% dialyzed FBS, 0.19 µM
[29] = RPMI 5 mM glucose + 10% dialyzed FBS, 0.569 µM
[30] = RPMI 5 mM glucose + 10% dialyzed FBS, 1.71 µM
[31] = RPMI 5 mM glucose + 10% dialyzed FBS, 5.12 µM
[32] = RPMI 5 mM glucose + 10% dialyzed FBS, 15.4 µM
[33] = RPMI 5 mM glucose + 10% dialyzed FBS, 46.1 µM

| Compound | cell viability [1] [%] | cell viability [2] [%] | cell viability [3] [%] | cell viability [4] [%] | cell viability [5] [%] | cell viability [6] [%] | cell viability [7] [%] | cell viability [8] [%] | cell viability [9] [%] | cell viability [10] [%] | cell viability [11] [%] | cell viability [12] [%] | cell viability [13] [%] | cell viability [14] [%] | cell viability [15] [%] | cell viability [16] [%] | cell viability [17] [%] | cell viability [18] [%] | cell viability [19] [%] | cell viability [20] [%] | cell viability [21] [%] | cell viability [22] [%] | cell viability [23] [%] | cell viability [24] [%] | cell viability [25] [%] | cell viability [26] [%] | cell viability [27] [%] | cell viability [28] [%] | cell viability [29] [%] | cell viability [30] [%] | cell viability [31] [%] | cell viability [32] [%] | cell viability [33] [%] |
| --- | --- | --- | --- | --- | --- | --- | --- | --- | --- | --- | --- | --- | --- | --- | --- | --- | --- | --- | --- | --- | --- | --- | --- | --- | --- | --- | --- | --- | --- | --- | --- | --- | --- |
| Cc1c(Cn2c(C)nc3c(C(=O)O)cc(N4CCOCC4)cc32)cccc1C(F)(F)F | 98.3 | 114 | 121 | 125 | 115 | 120 | 106 | 121 | 105 | 95.8 | 16.3 | 87.2 | 95.4 | 101 | 108 | 103 | 97.1 | 108 | 116 | 112 | 101 | 75 | 89.2 | 112 | 105 | 117 | 98.9 | 101 | 111 | 112 | 96.6 | 102 | 85.8 |
| CC1(C)OC2CC3C4CC(F)C/5=C/C(=O)/C=C\C5(C)C4C(O)CC3(C)[C@@]2(O1)C(=O)CO (stereo not given in full) | 105 | 111 | 118 | 119 | 126 | 117 | 110 | 124 | 123 | 124 | 119 | 113 | 108 | 102 | 115 | 121 | 127 | 116 | 112 | 117 | 119 | 119 | 124 | 113 | 125 | 122 | 123 | 150 | 123 | 138 | 135 | 119 | 132 |
| O=C(/C=C/c1cccc([S+](=O)([O-])Nc2ccccc2)c1)NO | 143 | 112 | 121 | 120 | 154 | 132 | 139 | 129 | 88 | 12.2 | 9.85 |  |  |  |  |  |  |  |  |  |  |  |  |  |  |  |  |  |  |  |  |  |  |
| Clc1cc(Cl)cc(CNc2ncncc2-c2ccc3c(c2)OCO3)c1 | 81.1 | 85.8 | 97.1 | 94.1 | 101 | 92.4 | 94.6 | 90.8 | 85.7 | 82.7 | 16.1 | 77.6 | 85.5 | 87.6 | 80.7 | 101 | 96.6 | 87.3 | 97.9 | 85.4 | 87.7 | 40.3 | 91.5 | 92.1 | 81.4 | 93.7 | 82 | 93.5 | 84.2 | 87.3 | 88.8 | 101 | 52.9 |
| Cn1cc(-c2ccc3nnc(C(F)(F)c4ccc5ncccc5c4)n3n2)cn1 | 115 | 99.1 | 97.5 | 107 | 101 | 106 | 105 | 101 | 95.4 | 103 | 69.3 | 110 | 106 | 135 | 109 | 107 | 106 | 99.6 | 94.9 | 106 | 96.6 | 87.2 | 87.3 | 98.4 | 111 | 97.8 | 99.2 | 98.6 | 119 | 108 | 99.5 | 96.2 | 81.3 |
| COc1cc(O)c2c(c1)C1OC1C[C@H](O)[C@H](O)C(=O)/C=C\C[C@H](C)OC2=O (stereo not given in full) | 92.7 | 118 | 104 | 111 | 126 | 120 | 122 | 125 | 108 | 31.3 | 12.5 | 109 | 99.9 | 99 | 120 | 105 | 96.7 | 121 | 103 | 97.8 | 50.4 | 13.7 | 93.5 | 98 | 105 | 109 | 110 | 114 | 113 | 100 | 94.7 | 50.7 | 17.5 |
| C[C@H]1C[C@H]2[C@@H]3CCC4=CC(=O)C=C[C@]4(C)[C@@]3(F)[C@@H](O)C[C@]2(C)[C@@]1(O)C(=O)CO |  |  |  |  |  |  |  |  |  |  |  | 120 | 122 | 128 | 122 | 123 | 133 | 131 | 135 | 120 | 120 | 106 |  |  |  |  |  |  |  |  |  |  |  |
| COc1cc2c(Oc3ccc(NC(=O)C4(C(=O)Nc5ccc(F)cc5)CC4)cc3F)ccnc2cc1OCCCN1CCOCC1 | 74.7 | 83.2 | 79.3 | 92 | 89.5 | 83.1 | 84.3 | 61 | 63.4 | 28.5 | 4.74 | 80.8 | 86.3 | 91.7 | 94.6 | 85.8 | 85.1 | 86.8 | 72.8 | 41 | 36.9 | 4.62 | 81.2 | 75.3 | 84.8 | 93.8 | 85.6 | 72.1 | 80.9 | 46.5 | 43.3 | 29.6 | 5.96 |
| CN(C/C=C/C#CC(C)(C)C)Cc1cccc2ccccc12 | 93.8 | 125 | 104 | 94.1 | 108 | 104 | 108 | 96.4 | 98 | 92.4 | 106 | 86.4 | 96.7 | 86.2 | 85.1 | 93.2 | 91.8 | 103 | 87.2 | 90 | 94.5 | 100 | 87.9 | 82.4 | 95.8 | 91.6 | 107 | 90.1 | 93.9 | 91.6 | 90.2 | 98.8 | 109 |
| OC[C@H](Cc1ccccc1)Nc1nc(Oc2ccc3c(c2)CCC3)nc2c1ncn2Cc1ccc(-c2ccccc2)cc1 | 95.3 | 100 | 83.5 | 123 | 86.9 | 98.5 | 108 | 88.6 | 99.5 | 87.2 | 96.7 | 79.7 | 83.2 | 84.8 | 96.4 | 102 | 89.7 | 90.3 | 92.2 | 98.8 | 90.5 | 90.2 | 90.7 | 84 | 102 | 95.6 | 98.5 | 101 | 116 | 96.7 | 100 | 114 | 96.3 |
| CCc1c(C(=O)C(N)=O)c2c(OCC(=O)O)cccc2n1Cc1ccccc1 | 113 | 105 | 94.9 | 103 | 122 | 103 | 107 | 100 | 89.4 | 90.8 | 96.5 | 92 | 105 | 91.1 | 103 | 104 | 93.1 | 89.2 | 103 | 98.2 | 100 | 92.3 | 95.3 | 103 | 105 | 101 | 105 | 86.9 | 103 | 96.6 | 96.3 | 91.6 | 92 |
| OC(=O)\C1=C\N(C2=CC=C(F)C=C2)C3=C(C=C(F)C(=C3)N4CCNCC4)C1=O | 113 | 99.1 | 116 | 111 | 129 | 122 | 114 | 105 | 101 | 95.6 | 98.6 | 103 | 99.1 | 110 | 101 | 104 | 104 | 117 | 104 | 115 | 98.4 | 94.6 | 107 | 106 | 116 | 105 | 106 | 113 | 133 | 100 | 105 | 104 | 85.8 |
| CC(C)Nc1cc(C(F)(F)F)cc2nc(NC(=O)c3cccnc3)nn12 | 120 | 116 | 118 | 126 | 123 | 101 | 119 | 85.2 | 80.8 | 71.6 | 54.2 | 106 | 107 | 115 | 106 | 98.1 | 118 | 116 | 52.6 | 45.9 | 56.5 | 64.8 | 108 | 109 | 115 | 119 | 125 | 103 | 98.2 | 55 | 50.4 | 56.9 | 62.9 |
| O=C1C[C@@H](c2ccc(O)cc2)Oc2cc(O)cc(O)c21 |  |  |  |  |  |  |  |  |  |  |  | 128 | 104 | 104 | 100 | 126 | 124 | 116 | 107 | 127 | 106 | 111 | 111 | 108 | 117 | 110 | 120 | 110 | 119 | 108 | 86.2 | 109 | 97.9 |
| OC[C@H]1O[C@H]([C@@H](F)[C@@H]1O)N2\C=C/C(=O)NC2=O | 99.1 | 106 | 106 | 97.2 | 116 | 108 | 108 | 107 | 109 | 97.9 | 90.2 | 85.9 | 40.6 | 97 | 92.9 | 99.7 | 104 | 98.2 | 100 | 84.8 | 94.3 | 82.8 | 105 | 74.5 | 97 | 102 | 102 | 99.4 | 105 | 99.5 | 84 | 104 | 95.2 |
| CC(=O)C\1=C(/C)C2=CN=C(NC3=CC=C(C=N3)N4CCNCC4)N=C2N(C5CCCC5)C1=O |  |  |  |  |  |  |  |  |  |  |  | 123 | 118 | 103 | 113 | 136 | 110 | 105 | 96.7 | 98 | 87.1 | 68.8 | 113 | 114 | 111 | 112 | 107 | 112 | 96.3 | 79.1 | 80.9 | 68.6 | 60.1 |
| NC1=NC=C(C=C1)C2=CC=C3N=CC\4=C(N(C(=O)\C=C4)C5=CC(=CC=C5)C(F)(F)F)C3=C2 | 80.5 | 76.8 | 62.6 | 57.6 | 41.2 | 27.1 | 24.1 | 24.3 | 21.4 | 18.6 | 16.5 | 86.1 | 83.9 | 75.3 | 74.4 | 55 | 29.7 | 30.3 | 23.2 | 15.3 | 11.7 | 13.2 | 68.9 | 72.8 | 74.1 | 61.4 | 46 | 28.5 | 29.5 | 22.9 | 17.2 | 13.5 | 17.1 |
